The structures appear in SMILES notation.

By Papp is commonly meant a coefficient for how fast a substance crosses the barrier.

The subject of one data set is Caco-2 cell monolayers. The data set is described as follows: Transport experiment with Caco-2 cell monolayers. The conditions noted are these: intestinal bacterial transformed AEOF.
The subject of data set [1] is activated intestinal bacteria. The data set can be described thus: Intestinal bacterial transformation of AEOF. The note with it: for After transformed by intestinal bacteria / Before transformed by intestinal bacteria: content in the extract; for transformation by intestinal bacteria (in words): in AEOF 15.0, 30.0, 60.0 mg/mL, up to 72 h, single person derived- or multiple people-derived intestinal bacteria; for time in which completely transformed by intestinal bacteria: in AEOF, isoquercetin to quercetin, trollioside to proglobeflowery acid. The class given is in vitro ADME, human. The method, then:
Each 3 g of fresh feces from 3 healthy men and 3 healthy women of 23–25 years old was suspended in 200 mL of general anaerobic medium (GAM, including L-cystine hydrochloride, soluble starch, pepsin, tryptone, peptone, soy peptone, serum powder, yeast extract, beef extract, and beef liver extract powder purchased from Beijing Aoboxing Biotechnology Co., Ltd, Beijing, China) broth prepared as per a literature (Yang & Xu [2011]), respectively, and cultured in an anaerobic incubator (Shanghai Cimomedical Appliance Co., Ltd., Shanghai, China) at 37 °C for 24 h (Tsuchihashi et al. [2009]). […] Each 100 μL of the activated intestinal bacteria from the 6 volunteers were added into 11.4 mL of GAM, mixed adequately, and incubated in the same conditions as previously to obtain the mixture of activated intestinal bacteria. About 0.4513, 0.9026, and 1.8052 g of AEOF were dissolved in 30 mL of GAM on a super clean bench (Beijing Great Wall Air Purification Co. Ltd., Beijing, China), respectively, to generate the experimental groups. Then, the triplicate GAM containing AEOF was divided into 24 screw-cap test tubes, and each screw-cap test tube had 3 mL of the GAM and 100 μL of the activated intestinal bacteria and the mixture of activated intestinal bacteria, respectively. They were incubated under the same condition, and the test tubes of each concentration in triplicate were removed from the anaerobic incubator at 0, 2, 4, 6, 12, 24, 48, and 72 h. About 100 μL of the bacterial suspension was replaced with GAM to obtain the control group. The GAM absent of the AEOF was used as the blank group. […] About 300 μL of the supernatant was collected, filtered through a 0.45 μm membrane filter, and stored at −20 °C before HPLC analysis.
The HPLC analysis was performed using a Waters 1500 series (Waters Business Operations, Milford, MA) equipped with a 1525 binary HPLC pump, an on-line degasser, a manual injector and a 2489 UV/Visible detector. […] The temperature was set at 35 °C and the UV detecting wavelengths were 254 and 365 nm. The mobile phase consisted of acetonitrile (HPLC grade, Fisher Co., Pittsburgh, PA) (A) and 1.0% acetic acid (Beijing Chemical Works, Beijing, China) in purified water (v/v) (B), and the gradient elution program was as follows: 5–10% A (0–5 min), 10–20% A (5–10 min), 20–25% A (10–22 min), 25–40% A (22–35 min), 40–50% A (35–40 min), and 50–5% A (40–42 min) at a flow rate of 1.0 mL/min. The volume injected was 5 μL.

Data set [2] has as its system everted gut sacs (jejunum). The data set can be described thus: Absorption experiment with everted gut sacs. The note with it: intestinal bacterial transformed AEOF.
Data set [3] is described as follows: Transport experiment with Caco-2 cell monolayers. The note with it: human, Caco-2, apparent permeability coefficient (Papp), reference compounds, validation of Caco-2 monolayers. For orientation: Passage across Caco-2 layers is used to estimate intestinal permeability.
Description: The Caco-2 cells were cultured in the culture medium consisting of Dulbecco’s Modified Eagle Medium (DMEM, Gibco Inc., Grand Island, CA)-fetal bovine serum (FBS, Gibco Inc., Grand Island, CA)-nonessential amino acids (NEAA, Corning Costar, Cambridge, MA)-‘penicillin-streptomycin’ (Corning Costar, Cambridge, MA) (100:10:1:1, v/v/v/v) in 25 cm^2 flasks, which were incubated in 5% CO2 and constant temperature (37 °C) and humidity in the incubator. The culture medium was replaced every 2 or 3 days, and the cells were split 1:2 or 1:3 to conduct passage when they reached 80% confluence.
About 1.5 mL of the culture medium was added into the basal (BL) side of each well of the 12-well Transwell plates (insert diameter 12 mm, pore size 3.0 μm, membrane growth area 1.12 cm^2, Corning Costar, Cambridge, MA), and 0.5 mL of the Caco-2 cell suspension at the density of 2.0 × 10^5 cells/mL was seeded into the apical (AP) side of each insert. The cells were incubated in 5% CO2 and constant temperature (37 °C) and humidity in the incubator. The culture medium in both AP and BL sides was replaced every other day in the first week, then that in AP side was replaced every day and that in BL side was replaced every other day. The cells would differentiate and form a confluent monolayer. The integrity and viability of the cell monolayers were evaluated by measuring transepithelial electrical resistance (TEER) values in the culture medium at 37 °C using a Millicell®-ERS system (Millipore Corp., Bedford, MA), and only the inserts with the TEER above 600 Ω/cm^2 on day 21 were selected to perform the transport experiment.
About 200 μL of the solution in the receiving chambers was collected at 30, 60, 90, 120, 150, and 180 min, respectively, and then the same volume of HBSS was added. All samples were stored at −20 °C and filtered through a 0.45 μm membrane filter for HPLC analysis.
The HPLC conditions used for the analysis of the intestinal bacterial transformed AEOF before and after transport experiment was the same as above.
The transport percentage (%) was calculated using the formula transport percentage (%) = dQ/(C0 × V) × 100, wherein, V (mL) represented the volume of the donor compartment.
The mark [4] stands for this setting: first of three lines per compound (lowest concentration; 10, 20, 30 mg/mL).
[5] abbreviates: second of three lines per compound (middle concentration, not given).
Setting [6] is: third of three lines per compound (highest concentration, not given).
[7] abbreviates: first of three lines per compound (lowest extract concentration).
The mark [8] stands for this setting: first of three lines per compound (lowest extract concentration; AEOF 15, 30, 60 mg/mL).
Where [9] appears, read: second of three lines per compound (middle extract concentration, not given).
Where [10] appears, read: third of three lines per compound (highest extract concentration, not given).

As for `O=c1c(O[C@@H]2O[C@H](CO)[C@@H](O)[C@H](O)[C@H]2O)c(-c2ccc(O)c(O)c2)oc2cc(O)cc(O)c12` [isoquercetin], the “After transported with Caco-2 cell monolayers” value in the data set on Caco-2 cell monolayers (setting [4]), with Caco-2 cell monolayers (setting [5]) and in the data set with Caco-2 cell monolayers (setting [6]) was 0.00 µg/mL in each case. Further, the “After transformed by intestinal bacteria” value in data set [1] (setting [7]), in data set [1] (setting [9]) and in data set [1] (setting [10]) was 0.00 µg/mL each time. Also, the “Before transformed by intestinal bacteria” value (shortened to “Before transformed”) in data set [1] (setting [8]) is 0.37 µg/mL; in data set [1] (setting [9]), 0.56 µg/mL; in data set [1] (setting [10]), 1.38 µg/mL. Further, the “transformation by intestinal bacteria (in words)” value (from here on “transformation”) in data set [1] is reported as “completely transformed”. Moreover, in data set [1], the “time in which completely transformed by intestinal bacteria” value is recorded as not above 24 h. Moreover, the “After transported with everted gut sacs” value in data set [2] (setting [4]), in data set [2] (setting [5]) and in data set [2] (setting [6]) was 0.00 µg/mL each time.
Take `COc1cc(C(=O)O)cc(CC=C(C)C)c1OC1OC(CO)C(O)C(O)C1O` (stereo not drawn) [trollioside]: the “After transported with Caco-2 cell monolayers” value with Caco-2 cell monolayers (setting [4]), in the data set with Caco-2 cell monolayers (setting [5]) and in the data set with Caco-2 cell monolayers (setting [6]) was 0.00 µg/mL in each case. For the same compound, the “After transformed by intestinal bacteria” value in data set [1] (setting [7]), in data set [1] (setting [9]) and in data set [1] (setting [10]) was 0.00 µg/mL each time. Further, the “Before transformed” value in data set [1] (setting [8]) is 5.62 µg/mL; in data set [1] (setting [9]), 12.76 µg/mL; in data set [1] (setting [10]), 26.84 µg/mL. Further, the “transformation” value in data set [1] was “completely transformed”. For the same compound, in data set [1], the “time in which completely transformed by intestinal bacteria” value is not above 24 h. The “After transported with everted gut sacs” value in data set [2] (setting [4]), in data set [2] (setting [5]) and in data set [2] (setting [6]) was 0.00 µg/mL in each case.
Take `CC(C)NCC(O)COc1cccc2ccccc12` (stereo not drawn) [propranolol, reference compound]: the apparent permeability (Papp) at 180 min in data set [3] is 41.2 ×10⁻⁶ cm/s.
With `O=c1c(O)c(-c2ccc(O)c(O)c2)oc2cc(O)cc(O)c12` [quercetin], the “After transported with Caco-2 cell monolayers” value with Caco-2 cell monolayers (setting [4]), with Caco-2 cell monolayers (setting [5]) and in the data set with Caco-2 cell monolayers (setting [6]) was 0.00 µg/mL each time. In addition, the “After transformed by intestinal bacteria” value in data set [1] (setting [7]) came out at 2.12 µg/mL; in data set [1] (setting [9]) it was 4.02 µg/mL; in data set [1] (setting [10]) it was 8.45 µg/mL. For the same compound, the “Before transformed” value in data set [1] (setting [8]) was found to be 1.56 µg/mL; in data set [1] (setting [9]), 3.25 µg/mL; in data set [1] (setting [10]), 7.38 µg/mL. The “transformation” value in data set [1] is recorded as “not transformed”. Moreover, the “After transported with everted gut sacs” value in data set [2] (setting [4]), in data set [2] (setting [5]) and in data set [2] (setting [6]) was 0.00 µg/mL in each case.

For the origin of these results see PMC6130518, “Investigation of the effective components of the flowers of Trollius chinensis from the perspectives of intestinal bacterial transformation and intestinal absorption” (Pharmaceutical Biology, 2017).
